Data on four compounds can be found in patent US20150324546A1, “METHOD FOR PREDICTING DRUG-TARGET INTERACTIONS AND USES FOR DRUG REPOSITIONING” (GEORGETOWN UNIVERSITY, priority 2012, published 2015).

Read-outs that look alike come from different tables or passages of the source.

In one data set the test system is angiogenesis. To be noted: previously demonstrated; cited from earlier work.
Data set [1] relates to Human umbilical vein endothelial cells (HUVEC). As to the kind of experiment: HUVEC angiogenesis (network formation on Matrigel) assay. The class given is cell-based. To be noted: 24 h incubation, 1-100 μM, read-out: Inhibition of HUVEC network formation IC50.
Description: Mebendazole was dissolved in 50 μl of DMSO and diluted with endothelial growth medium (EGM) to a final concentration of 1 mM. The highest concentration of DMSO is 0.1%. Human umbilical vein endothelial cells (HUVEC) were purchased from Cambrex Co. (East Rutherford, N.J., USA) and maintained in endothelial growth medium (EGM) supplemented with 2% FBS, 0.1% EGF, 0.1% hydrocortisone, 0.1% GA-1000, and 0.4% BBE. Morphogenesis assay on Matrigel was performed according to the manufacturer's instructions (Chemicon International). The ECMatrix™ kit consists of laminin, collagen type IV, heparan sulfate, proteoglycans, entactin, and nidogen. It also contains various growth factors (TGF-beta, FGF) and proteolytic enzymes (plasminogen, tPA, and MMPs) that are normally produced in EHS tumors. The incubation condition was optimized for maximal tube-formation as follows: 50 μl of EC Matrix™ was suitably diluted in a ratio 9:1 with 10× diluent buffer and used to coat the 96-well plate. The coated plates were incubated at 37° C. for 1 hr to allow the Matrix solution to solidify. HUVECs were cultured for 24 h in EGM with 2% FBS, trypsinized and re-suspended in the growth medium. […]
The efficiency of Mebendazole to inhibit the VEGFR2 kinase was measured by monitoring the ability of HUVECs to form networks.
Another data set concerns the target VEGFR2 (Homo sapiens, UniProt P35968). To be noted: read-out: VEGFR2 kinase activity IC50; 450 uM ATP, 60 minutes at room temperature, duplicate wells.
The conditions of data set [2]: humans; cited from earlier work.
Data set [3] concerns MDA-MB-231 invasive breast cancer cell line. As to the kind of experiment: Growth inhibition of MDA-MB-231 cells, MTS assay. The class given is cell-based. To be noted: Homo sapiens, 48 hrs exposure. The protocol:
MDA-MB-231 cells were seeded at 4000 cells/well in a 96 well plate. […] Three wells per concentration were treated 24 h post seeding, and the MTS assay was performed 48 h post treatment. The CellTiter96 Aqueous Non-Radioactive Cell Proliferation Assay kit (Promega) was used according to the manufacturer's recommendations. The absorbance values were measured at 490 nm and viable cells presented as a percentage of the absorbance of DMSO-only treated cells. IC50 and R^2 values were calculated with the Graphpad Prism software.

The conditions of data set [4]: rats; cited from earlier work.

Chain of VEGFR2 (P35968 20-1356, species assumed): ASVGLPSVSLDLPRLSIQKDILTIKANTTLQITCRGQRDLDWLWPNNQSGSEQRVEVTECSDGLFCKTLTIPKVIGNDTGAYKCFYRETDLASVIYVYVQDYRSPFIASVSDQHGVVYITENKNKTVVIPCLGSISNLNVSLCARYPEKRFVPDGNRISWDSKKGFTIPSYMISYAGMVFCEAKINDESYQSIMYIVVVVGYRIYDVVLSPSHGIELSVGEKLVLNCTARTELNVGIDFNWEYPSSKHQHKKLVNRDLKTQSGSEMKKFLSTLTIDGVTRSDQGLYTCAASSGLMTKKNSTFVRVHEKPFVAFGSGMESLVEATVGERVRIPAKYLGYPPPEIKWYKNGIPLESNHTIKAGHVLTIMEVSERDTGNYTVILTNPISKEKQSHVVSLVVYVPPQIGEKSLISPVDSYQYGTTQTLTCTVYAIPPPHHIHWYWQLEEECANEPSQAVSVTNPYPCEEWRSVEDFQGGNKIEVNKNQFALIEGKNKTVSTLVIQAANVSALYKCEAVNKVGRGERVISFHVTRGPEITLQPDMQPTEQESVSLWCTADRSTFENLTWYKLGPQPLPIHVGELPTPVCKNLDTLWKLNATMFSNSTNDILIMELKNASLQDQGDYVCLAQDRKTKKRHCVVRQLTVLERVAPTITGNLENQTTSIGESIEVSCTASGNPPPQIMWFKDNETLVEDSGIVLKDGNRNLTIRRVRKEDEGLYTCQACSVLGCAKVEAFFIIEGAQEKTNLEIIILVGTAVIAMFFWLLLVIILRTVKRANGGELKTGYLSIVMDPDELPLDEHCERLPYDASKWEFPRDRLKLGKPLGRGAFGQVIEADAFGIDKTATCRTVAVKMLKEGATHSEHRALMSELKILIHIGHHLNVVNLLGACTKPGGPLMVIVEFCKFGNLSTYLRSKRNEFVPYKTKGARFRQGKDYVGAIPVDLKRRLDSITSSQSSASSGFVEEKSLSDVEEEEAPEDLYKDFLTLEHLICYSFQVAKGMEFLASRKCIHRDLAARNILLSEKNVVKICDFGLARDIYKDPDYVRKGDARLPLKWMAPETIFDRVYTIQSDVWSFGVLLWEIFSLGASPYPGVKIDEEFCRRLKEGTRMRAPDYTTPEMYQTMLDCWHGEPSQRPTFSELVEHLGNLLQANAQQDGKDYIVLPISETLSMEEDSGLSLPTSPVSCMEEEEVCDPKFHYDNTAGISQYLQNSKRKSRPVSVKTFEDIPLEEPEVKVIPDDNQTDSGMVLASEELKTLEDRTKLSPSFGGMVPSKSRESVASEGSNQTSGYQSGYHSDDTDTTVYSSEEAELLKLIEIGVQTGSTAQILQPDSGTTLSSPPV
Description for VEGFR2: The VEGFR2 kinase assay was performed by using the Caliper LabChip 3000 and a 12-sipper LabChip. […] The off-chip incubation mobility-shift kinase assay uses a microfluidic chip to measure the conversion of a fluorescent peptide substrate to a phosphorylated product. The reaction mixture, from a microtiter well plate, is introduced through a capillary sipper onto the chip, where the nonphosphorylated substrate and phosphorylated product are separated by electrophoresis and detected via laser-induced fluorescence.
The assay reaction is: Fluorescein-peptide+ATP→fluorescein-phosphopeptide+ADP, which is measured by charge separation of phosphorylated product and unphosphorylated substrate. […] Following addition of ATP, samples were incubated for 60 minutes at room temperature and the reaction was terminated by the addition of stop buffer containing 100 mM HEPES (pH 7.5), 7 mM EDTA, 0.015% Brij-35, 4% DMSO. Phosphorylated product and unphosphorylated substrate were separated by charge using electrophoretic mobility shift. The product formed is compared to control wells to determine inhibition or enhancement of enzyme activity.
IC50 curves were generated using GraphPad 5 and a standard 4-parameter non-linear regression model (log [inhibitor] vs response−variable slope). Data points correspond to the averages of duplicate wells, and error bars represent the mean±replicate % activity.

As to `CCCSc1ccc2nc(NC(=O)OC)[nH]c2c1` [Albendazole], the Inhibition of angiogenesis entry with angiogenesis was “inhibit angiogenesis”.
For the compound `COC(=O)Nc1nc2ccc(C(=O)c3ccccc3)cc2[nH]1` [Mebendazole], the results for the half-inhibitory concentration (IC50) (in data set [1]; at VEGFR2) were 8.8 µM and 3.6 µM, respectively.
In the case of `Cc1ccc(-c2cc(C(F)(F)F)nn2-c2ccc(S(N)(=O)=O)cc2)cc1` [celecoxib], the Circulating levels in data set [2] and in data set [4] was 1 to 10 µM throughout. For the same compound, the IC50 (commonly the concentration that gives 50% inhibition) in data set [3] was 40 µM.
`Cc1ccc(C)c(-c2cc(C(F)(F)F)nn2-c2ccc(S(N)(=O)=O)cc2)c1` [dimethyl celecoxib] came in with a half-maximal inhibitory concentration (IC50) in data set [3] of 36 µM.
